Counter-ions that a name gives are not always drawn.
target: PAPD5 enzyme (Homo sapiens, UniProt Q8NDF8); assay: PAPD5 assay (AMP incorporation onto 3'-terminus of RNA substrate, fluorescence quench); type: biochemical; conditions: PAPD5 protein 0.3 nM, ATP 50 μM, 30 minutes preincubation, room temperature; read-out: Potency PAPD5 IC50
Method: The purpose of the PAPD5 assay is to determine compound potency against PAPD5 enzyme through the measurement of IC50. Compound inhibition is measured as a function of AMP incorporation onto the 3′-terminus of an RNA substrate in the presence of active PAPD5, ATP, and inhibitor. The PAPD5 assay was done in a black, non-binding, 384 well plate (Corning #3575). All steps were performed at room temperature. For a typical assay, a 40 ul aliquot of assay buffer (50 mM HEPES pH 7.3, 20 mM KCl, 10 mM MgCl2, 10 mMM DTT, 0.01% Triton X-100, 40 U/ml RNAsin (Promega)) containing PAPD5 protein (final 10 concentration: 0.3 nM) and ATP (final concentration 50 μM) was added to each well. Next, 1 ul of compound in 100% DMSO is transferred from a compound dilution plate in which the compound is serially diluted. The plate was placed on a plate shaker for 30 seconds to produce mixing, then incubated for 30 minutes. Next, 10 ul of a 5× mix of RNA substrate (5′-fluorescein-AUAGAG-3′ (IDT)) and a DNA oligonucleotide that is complementary to the AMP modified RNA product (5′-TCTCTATT-3′-TAMRA, wherein the first two nucleotides are locked nucleic acids (IDT)) was added (final concentrations: 5 nM and 20 nM, respectively). The plate was placed on a plate shaker for 30 seconds to produce mixing then immediately placed in a Biotek Cytation 5 plate reader, and the time-dependent decrease in fluorescein fluorescence resulting from annealing of the TAMRA labeled quenching probe was recorded, using the kinetics mode of the reader (typical run time is 90 minutes). Reaction rates were obtained using linear fits to the early portion of progress curves. IC50 values were calculated using a four-parameter fit with 100% enzyme activity determined from the DMSO control and 0% activity from control samples lacking UTP.
“+” represents an IC50 value that is greater than 50 PM; “++” represents an IC50 value that is greater than 10 μM and equal to or less than 50 μM; “+++” represents an IC50 value that is greater than 1 μM and equal to or less than 10 μM; and “++++” represents an IC50 value that is equal to or less than 1 μM.

PAPD5 enzyme, sequence (Q8NDF8 whole entry): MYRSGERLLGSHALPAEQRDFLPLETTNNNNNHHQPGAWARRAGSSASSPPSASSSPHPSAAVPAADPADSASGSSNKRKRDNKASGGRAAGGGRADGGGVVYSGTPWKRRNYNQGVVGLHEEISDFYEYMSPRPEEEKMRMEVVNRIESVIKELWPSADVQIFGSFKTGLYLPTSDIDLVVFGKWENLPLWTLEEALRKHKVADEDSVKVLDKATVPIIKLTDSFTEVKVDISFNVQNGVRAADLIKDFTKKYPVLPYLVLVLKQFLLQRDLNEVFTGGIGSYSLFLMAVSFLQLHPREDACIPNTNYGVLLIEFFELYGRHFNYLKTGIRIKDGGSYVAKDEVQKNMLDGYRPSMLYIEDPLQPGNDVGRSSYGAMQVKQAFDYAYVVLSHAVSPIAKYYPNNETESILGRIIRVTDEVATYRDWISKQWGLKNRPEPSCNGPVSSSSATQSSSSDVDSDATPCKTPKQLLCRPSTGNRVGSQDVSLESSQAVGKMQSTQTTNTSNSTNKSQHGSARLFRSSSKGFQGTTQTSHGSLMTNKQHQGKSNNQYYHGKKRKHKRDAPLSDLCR

IC50, ≤ 1 µM:
Cc1cc(NC(=O)C2CC2)ncc1-n1cc(C(=O)O)c(=O)c2cc(Cl)c(N3Cc4cccnc4C3)cc21 [Example 114, 6-chloro-1-(6-(cyclopropanecarboxamido)-4-methylpyridin-3-yl)-7-(5,7-dihydro-6H-pyrrolo[3,4-b]pyridin-6-yl)-4-oxo-1,4-dihydroquinoline-3-carboxylic acid]
Cc1cc(N)ncc1-n1cc(C(=O)O)c(=O)c2cc(Cl)c(-n3ccc(N)n3)nc21 [Example 147, 7-(3-amino-1H-pyrazol-1-yl)-1-(6-amino-4-methylpyridin-3-yl)-6-chloro-4-oxo-1,4-dihydro-1,8-naphthyridine-3-carboxylic acid]
CS(=O)(=O)Nc1ccc(-n2cc(C(=O)O)c(=O)c3cc(C#N)c(N4Cc5cccnc5C4)cc32)c(F)c1 [Example 57, 6-cyano-7-(5,7-dihydro-6H-pyrrolo[3,4-b]pyridin-6-yl)-1-(2-fluoro-4-(methylsulfonamido)phenyl)-4-oxo-1,4-dihydroquinoline-3-carboxylic acid]
CN(C)C(=O)N1CCC(Cn2cc(C(=O)O)c(=O)c3cc(Cl)c(N4Cc5cccnc5C4)cc32)CC1 [Example 129, 6-chloro-7-(5,7-dihydro-6H-pyrrolo[3,4-b]pyridin-6-yl)-1-((1-(dimethylcarbamoyl)piperidin-4-yl)methyl)-4-oxo-1,4-dihydroquinoline-3-carboxylic acid]
COc1ccc2c(c1)CN(c1nc3c(cc1Cl)c(=O)c(C(=O)O)cn3-c1cnc(N)cc1C)C2 [Example 161, 1-(6-amino-4-methylpyridin-3-yl)-6-chloro-7-(5-methoxyisoindolin-2-yl)-4-oxo-1,4-dihydro-1,8-naphthyridine-3-carboxylic acid]
Cc1cc(NC(=O)N(C)C)ncc1-n1cc(C(=O)O)c(=O)c2cc(Cl)c(N3Cc4cccnc4C3)cc21 [Example 116, 6-chloro-7-(5,7-dihydro-6H-pyrrolo[3,4-b]pyridin-6-yl)-1-(6-(3,3-dimethylureido)-4-methylpyridin-3-yl)-4-oxo-1,4-dihydroquinoline-3-carboxylic acid]
N#Cc1cc2c(=O)c(C(=O)O)cn(CC3CCCCC3)c2nc1N1Cc2cccnc2C1 [Example 63, 6-cyano-1-(cyclohexylmethyl)-7-(5,7-dihydro-6H-pyrrolo[3,4-b]pyridin-6-yl)-4-oxo-1,4-dihydro-1,8-naphthyridine-3-carboxylic acid]
COc1ccc(Cn2cc(C(=O)O)c(=O)c3cc(Cl)c(N4Cc5cccnc5C4)nc32)cc1 [Example 44, 6-chloro-7-(5,7-dihydro-6H-pyrrolo[3,4-b]pyridin-6-yl)-1-(4-methoxybenzyl)-4-oxo-1,4-dihydro-1,8-naphthyridine-3-carboxylic acid]
CN1CCC(Cn2cc(C(=O)O)c(=O)c3cc(Cl)c(N4Cc5cccnc5C4)cc32)CC1 [Example 120, 6-chloro-7-(5,7-dihydro-6H-pyrrolo[3,4-b]pyridin-6-yl)-1-((1-methylpiperidin-4-yl)methyl)-4-oxo-1,4-dihydroquinoline-3-carboxylic acid]
Cc1cc(N)ncc1-n1cc(C(=O)O)c(=O)c2cc(Cl)c(N3Cc4cccnc4C3)nc21 [Example 78, 1-(6-amino-4-methylpyridin-3-yl)-6-chloro-7-(5,7-dihydro-6H-pyrrolo[3,4-b]pyridin-6-yl)-4-oxo-1,4-dihydro-1,8-naphthyridine-3-carboxylic acid TFA salt]
O=C(O)c1cn(Cc2ccccc2Cl)c2nc(N3Cc4cccnc4C3)c(Cl)cc2c1=O [Example 69, 6-chloro-1-(2-chlorobenzyl)-7-(5,7-dihydro-6H-pyrrolo[3,4-b]pyridin-6-yl)-4-oxo-1,4-dihydro-1,8-naphthyridine-3-carboxylic acid]
Cc1cc(N)ncc1-n1cc(C(=O)O)c(=O)c2ccc(N3Cc4ccccc4C3)c(F)c21 [Example 155, 1-(6-amino-4-methylpyridin-3-yl)-8-fluoro-7-(isoindolin-2-yl)-4-oxo-1,4-dihydroquinoline-3-carboxylic acid]
Nc1ccc(-n2cc(C(=O)O)c(=O)c3cc(Cl)c(N4Cc5cccnc5C4)cc32)cn1 [Example 52, 1-(6-aminopyridin-3-yl)-6-chloro-7-(5,7-dihydro-6H-pyrrolo[3,4-b]pyridin-6-yl)-4-oxo-1,4-dihydroquinoline-3-carboxylic acid]
N#Cc1cc2c(=O)c(C(=O)O)cn(CC3CCCC3)c2nc1N1Cc2cccnc2C1 [Example 62, 6-cyano-1-(cyclopentylmethyl)-7-(5,7-dihydro-6H-pyrrolo[3,4-b]pyridin-6-yl)-4-oxo-1,4-dihydro-1,8-naphthyridine-3-carboxylic acid]
COc1cnc(-n2cc(C(=O)O)c(=O)c3cc(F)c(N4Cc5cccnc5C4)nc32)cn1 [Example 103, 7-(5,7-dihydro-6H-pyrrolo[3,4-b]pyridin-6-yl)-6-fluoro-1-(5-methoxypyrazin-2-yl)-4-oxo-1,4-dihydro-1,8-naphthyridine-3-carboxylic acid]
Cc1cc(N)ncc1-n1cc(C(=O)O)c(=O)c2cc(Cl)c(N3CCc4ncccc4C3)nc21 [Example 186, 1-(6-amino-4-methylpyridin-3-yl)-6-chloro-7-(7,8-dihydro-1,6-naphthyridin-6(5H)-yl)-4-oxo-1,4-dihydro-1,8-naphthyridine-3-carboxylic acid]
Cc1cc(N)ncc1-n1cc(C(=O)O)c(=O)c2cc(Cl)c(N3CCc4cccnc4C3)nc21 [Example 180, 1-(6-amino-4-methylpyridin-3-yl)-6-chloro-7-(5,8-dihydro-1,7-naphthyridin-7(6H)-yl)-4-oxo-1,4-dihydro-1,8-naphthyridine-3-carboxylic acid]
Cc1cc(N)ncc1-n1cc(C(=O)O)c(=O)c2cc(Cl)c(-n3ccc(N(C)C)n3)nc21 [Example 162, 1-(6-amino-4-methylpyridin-3-yl)-6-chloro-7-(3-(dimethylamino)-1H-pyrazol-1-yl)-4-oxo-1,4-dihydro-1,8-naphthyridine-3-carboxylic acid]
Cc1nc(N)ccc1-n1cc(C(=O)O)c(=O)c2cc(Cl)c(N3Cc4cccnc4C3)cc21 [Example 24, 1-(6-amino-2-methylpyridin-3-yl)-6-chloro-7-(5,7-dihydro-6H-pyrrolo[3,4-b]pyridin-6-yl)-4-oxo-1,4-dihydroquinoline-3-carboxylic acid]
Nc1ncc(-n2cc(C(=O)O)c(=O)c3cc(Cl)c(N4Cc5cccnc5C4)cc32)cc1F [Example 23, 1-(6-amino-5-fluoropyridin-3-yl)-6-chloro-7-(5,7-dihydro-6H-pyrrolo-[3,4-b]pyridin-6-yl)-4-oxo-1,4-dihydroquinoline-3-carboxylic acid]
Cc1cc(N2CCC2)ncc1-n1cc(C(=O)O)c(=O)c2cc(Cl)c(N3Cc4cccnc4C3)cc21 [Example 189, 1-(6-(azetidin-1-yl)-4-methylpyridin-3-yl)-6-chloro-7-(5,7-dihydro-6H-pyrrolo[3,4-b]pyridin-6-yl)-4-oxo-1,4-dihydroquinoline-3-carboxylic acid]
Cc1cc2c(=O)c(C(=O)O)cn(-c3cnc(N)cc3C)c2cc1N1Cc2cccnc2C1 [Example 141]
CN(C)CCOc1ccc(-n2cc(C(=O)O)c(=O)c3cc(C#N)c(N4Cc5cccnc5C4)cc32)cn1 [Example 59, 6-cyano-7-(5,7-dihydro-6H-pyrrolo[3,4-b]pyridin-6-yl)-1-(6-(2-(dimethylamino)ethoxy)pyridin-3-yl)-4-oxo-1,4-dihydroquinoline-3-carboxylic acid hydrochloride]
O=C(O)c1cn(Cc2ccccc2)c2nc(N3Cc4cccnc4C3)c(Cl)cc2c1=O [Example 40, 1-benzyl-6-chloro-7-(5,7-dihydro-6H-pyrrolo[3,4-b]pyridin-6-yl)-4-oxo-1,4-dihydro-1,8-naphthyridine-3-carboxylic acid]
COc1ncccc1Cn1cc(C(=O)O)c(=O)c2cc(Cl)c(N3Cc4cccnc4C3)nc21 [Example 71, 6-chloro-7-(5,7-dihydro-6H-pyrrolo[3,4-b]pyridin-6-yl)-1-((2-methoxypyridin-3-yl)methyl)-4-oxo-1,4-dihydro-1,8-naphthyridine-3-carboxylic acid]

Reference: patent US20240376100A1 (Redona Therapeutics, Inc., priority 2021, published 2024)
